Assay results reported in patent US9447087B2, “Galactokinase inhibitors for the treatment and prevention of associated diseases and disorders” (UNIVERSITY OF UTAH RESEARCH FOUNDATION, priority 2011, dated 2016).

Biological target: GALK (Homo sapiens (Human), UniProt P51570)
Experiment: primary qHTS assay for inhibitors of GALK (KinaseGlo ATP depletion)
Format: biochemical
Set-up: GALK Assay Efficacy: unit not given here
Details: 5 nM GALK, 35 μM ATP, 1 hr incubation
Experimental: Assay details and protocol: The primary assay monitored ATP depletion using Promega's KinaseGlo™ technology, where ATP levels are measured through luminescence generated from firefly luciferase, a bioluminescent ATP-dependent enzymes. […] This was used as the positive control for the assay. […]

Chain of GALK (P51570 whole entry): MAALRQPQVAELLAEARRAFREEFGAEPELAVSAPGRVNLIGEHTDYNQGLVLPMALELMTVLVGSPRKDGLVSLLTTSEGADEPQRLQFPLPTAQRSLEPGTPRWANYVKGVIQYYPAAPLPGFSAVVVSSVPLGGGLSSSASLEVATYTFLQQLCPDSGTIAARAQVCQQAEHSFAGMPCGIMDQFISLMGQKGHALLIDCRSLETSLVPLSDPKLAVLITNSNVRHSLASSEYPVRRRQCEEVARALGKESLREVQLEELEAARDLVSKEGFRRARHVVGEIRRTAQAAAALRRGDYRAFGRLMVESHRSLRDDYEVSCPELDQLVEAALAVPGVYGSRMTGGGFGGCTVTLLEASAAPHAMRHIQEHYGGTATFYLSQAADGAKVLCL

| SMILES | IC50 [µM] | GALK Assay Efficacy |
| --- | --- | --- |
| O=C1CCCC2=C1C(c1ccccc1Cl)N=C(Nc1nc3ccccc3o1)N2 (stereo not drawn) [Compound 17] | 0.595 |  |
| Cc1ccc(C2N=C(Nc3nc4ccccc4o3)NC3=C2C(=O)CCC3)cc1 (stereo not drawn) [Compound 47] | 61.1 |  |
| O=C1CCCC2=C1C(c1ccccc1Cl)N=C(Nc1nc3ccccc3o1)N2 (stereo not drawn) [Compound 57] | 2.66 |  |
| O=C1CCCC2=C1C(c1ccncc1Br)N=C(Nc1nc3ccccc3o1)N2 (stereo not drawn) [Compound 68] | 1.46 |  |
| CC1(C)CC(=O)C2=C(C1)NC(Nc1nc3ccccc3o1)=NC21CCCCC1 [Compound 7] | 5.17 |  |
| O=C1CCCC2=C1C1(CCS(=O)(=O)C1)N=C(Nc1nc3ccccc3o1)N2 (stereo not drawn) [Compound 24, 2-(benzo[d]oxazol-2-ylamino)-4′,5′,7,8-tetrahydro-1H,2′H-spiro[quinazoline-4,3′-thiophen-1,1-dioxide]-5(6H)-one] | 6.68 | 67.583 |
| CC1=C(C(=O)Nc2nc3ccccc3s2)C(c2n[nH]cc2Cl)N=C(Nc2nc3ccccc3o2)N1 (stereo not drawn) [Compound 107] | 11.6 |  |
| CC1=C(C(=O)Nc2ccccc2Cl)C(c2ccccc2Br)N=C(Nc2nc3ccccc3o2)N1 (stereo not drawn) [Compound 76] | 3.26 |  |
| O=C1CCCC2=C1C(c1ccn[nH]1)N=C(Nc1nc3ccccc3o1)N2 (stereo not drawn) [Compound 73] | 14.6 |  |
| O=C1CCCC2=C1C(c1ccccc1C(F)(F)F)N=C(Nc1nc3ccccc3o1)N2 (stereo not drawn) [Compound 39] | 12.2 |  |
| CC1=C(C(=O)NC2CCCCC2)C(c2ccccc2Br)N=C(Nc2nc3ccccc3o2)N1 (stereo not drawn) [Compound 89] | 9.19 |  |
| CN(C)c1ccc(C2N=C(Nc3nc4ccccc4o3)NC3=C2C(=O)CCC3)cc1 (stereo not drawn) [Compound 53] | 76.9 |  |
| O=C1CCCC2=C1C(c1ccc(Cl)cc1)N=C(Nc1nc3ccccc3o1)N2 (stereo not drawn) [Compound 38] | 68.5 |  |
| O=C1CCCC2=C1C(c1cccc(C(F)(F)F)c1)N=C(Nc1nc3ccccc3o1)N2 (stereo not drawn) [Compound 40] | 16.8 |  |
| CC1CCC2(C1)N=C(Nc1nc3ccccc3o1)NC1=C2C(=O)CCC1 (stereo not drawn) [Compound 14] | 11.9 |  |
| O=C1CCCC2=C1C(c1cccc(F)c1)N=C(Nc1nc3ccccc3o1)N2 (stereo not drawn) [Compound 42] | 68.5 |  |
| O=C1CCCC2=C1C1(CCSC1)N=C(Nc1nc3ccccc3o1)N2 (stereo not drawn) [Compound 21] | 2.66 |  |
| Cc1ccc(C2N=C(Nc3nc4ccccc4o3)NC3=C2C(=O)CCC3)s1 (stereo not drawn) [Compound 48] | 61.1 |  |
| CC1=C(C(=O)Nc2nncs2)C(c2ccccc2Br)N=C(Nc2nc3ccccc3o2)N1 (stereo not drawn) [Compound 86] | 3.26 |  |
| O=C1CCCC2=C1C(c1ccccc1)N=C(Nc1nc3ccccc3o1)N2 (stereo not drawn) [Compound 52] | 34.3 |  |

| SMILES | IC50 [µM] | GALK Assay Efficacy |
| --- | --- | --- |
| Cc1ccsc1C1N=C(Nc2nc3ccccc3o2)NC2=C1C(=O)CCC2 (stereo not drawn) [Compound 65] | 9.19 |  |
| Cc1cccc(C2N=C(Nc3nc4ccccc4o3)NC3=C2C(=O)CCC3)c1 (stereo not drawn) [Compound 46] | 61.1 |  |
| CC1=C(C(=O)Nc2ccon2)C(c2nn(C)cc2Cl)N=C(Nc2nc3ccccc3o2)N1 (stereo not drawn) [Compound 112] | 9.19 |  |
| CC1=C(C(=O)Nc2nncs2)C(c2nn(C)cc2Cl)N=C(Nc2nc3ccccc3o2)N1 (stereo not drawn) [Compound 102] | 5.17 |  |
| Cn1ncc(Cl)c1C1N=C(Nc2nc3ccccc3o2)NC2=C1C(=O)CCC2 (stereo not drawn) [Compound 64] | 36.6 |  |
| CC1=C(C(=O)n2ccc3ccccc32)C(c2ccccc2Br)N=C(Nc2nc3ccccc3o2)N1 (stereo not drawn) [Compound 82] | 18.3 |  |
| CC1=C(C(=O)Nc2nc3ccccc3s2)C(c2nn(C)cc2Cl)N=C(Nc2nc3ccccc3o2)N1 (stereo not drawn) [Compound 98] | 9.19 |  |
| COc1ccc(C2N=C(Nc3nc4ccccc4o3)NC3=C2C(=O)CCC3)cc1 (stereo not drawn) [Compound 45] | 61.1 |  |
| CC1=C(C(=O)Nc2ccccc2)C(c2ccccc2Br)N=C(Nc2nc3ccccc3o2)N1 (stereo not drawn) [Compound 90] | 9.19 |  |
| CC1=C(C(=O)Nc2nnc(-c3ccccc3)s2)C(c2n[nH]cc2Cl)N=C(Nc2nc3ccccc3o2)N1 (stereo not drawn) [Compound 108] | 5.17 |  |
| O=C1CCCC2=C1C(c1n[nH]cc1Cl)NC(Nc1nc3ccccc3o1)=N2 (stereo not drawn) [Compound 75] | 2.91 |  |
| O=C1CCCC2=C1C(c1ccccc1I)N=C(Nc1nc3ccccc3o1)N2 (stereo not drawn) [Compound 66] | 1.16 |  |
| O=C1CCCC2=C1C(c1ccccc1Br)N=C(Nc1nc3ccccc3o1)N2 (stereo not drawn) [Compound 41] | 0.749 |  |
| CC1=C(C(=O)Nc2ccccc2C)C(c2ccccc2Br)N=C(Nc2nc3ccccc3o2)N1 (stereo not drawn) [Compound 78] | 4.61 |  |
| O=C1CCCC2=C1C(c1ccncc1Cl)N=C(Nc1nc3ccccc3o1)N2 (stereo not drawn) [Compound 55] | 15.3 |  |
| O=C1CCCC2=C1C(c1ncccc1C(F)(F)F)N=C(Nc1nc3ccccc3o1)N2 (stereo not drawn) [Compound 58] | 6.68 |  |
| CNC(=O)C1=C(C)NC(Nc2nc3ccccc3o2)=NC1c1nn(C)cc1Cl (stereo not drawn) [Compound 105] | 16.3 |  |
| CC1=C(C(=O)NC2CC2)C(c2n[nH]cc2Cl)N=C(Nc2nc3ccccc3o2)N1 (stereo not drawn) [Compound 110] | 20.6 |  |
| COc1cccc(C2N=C(Nc3nc4ccccc4o3)NC3=C2C(=O)CCC3)c1 (stereo not drawn) [Compound 44] | 18.8 |  |
| O=C1CCCC2=C1C(c1ncccc1Br)N=C(Nc1nc3ccccc3o1)N2 (stereo not drawn) [Compound 67] | 0.651 |  |

| SMILES | IC50 [µM] | GALK Assay Efficacy |
| --- | --- | --- |
| O=C1CCCC2=C1C(c1cnccc1C(F)(F)F)N=C(Nc1nc3ccccc3o1)N2 (stereo not drawn) [Compound 59] | 6.68 |  |
| O=C1CCCC2=C1[C@@]1(CCC(c3ccccc3)C1)N=C(Nc1nc3ccccc3o1)N2 (stereo partly drawn) [Compound 12] | 47.3 |  |
| CC1=C(C(=O)NC2CC2)C(c2nn(C)cc2Cl)N=C(Nc2nc3ccccc3o2)N1 (stereo not drawn) [Compound 101] | 18.3 |  |
| CC1=C(C(=O)Nc2nnc(-c3ccccc3)s2)C(c2nn(C)cc2Cl)N=C(Nc2nc3ccccc3o2)N1 (stereo not drawn) [Compound 100] | 3.66 |  |
| COc1ccccc1C1N=C(Nc2nc3ccccc3o2)NC2=C1C(=O)CCC2 (stereo not drawn) [Compound 43] | 48.5 |  |
| CC1=C(C(=O)Nc2nncs2)C2(CCCC2)N=C(Nc2nc3ccccc3o2)N1 [Compound 93] | 3.26 |  |
| O=C1CCCC2=C1C1(CCCOC1)N=C(Nc1nc3ccccc3o1)N2 (stereo not drawn) [Compound 23] | 33.5 |  |
| O=C1CCCC2=C1C(c1cccnc1Cl)N=C(Nc1nc3ccccc3o1)N2 (stereo not drawn) [Compound 61] | 18.8 |  |
| O=C1CCC2=C1C(c1ccccc1Cl)N=C(Nc1nc3ccccc3o1)N2 (stereo not drawn) [Compound 16] | 9.43 |  |
| CC1=C(C(=O)NCc2ccccc2)C(c2ccccc2Br)N=C(Nc2nc3ccccc3o2)N1 (stereo not drawn) [Compound 92] | 6.51 |  |
| Cc1cc(C2N=C(Nc3nc4ccccc4o3)NC3=C2C(=O)CCC3)n[nH]1 (stereo not drawn) [Compound 74] | 18.3 |  |
| O=C1CCCC2=C1C(c1ccc(F)cc1)N=C(Nc1nc3ccccc3o1)N2 (stereo not drawn) [Compound 51] | 61.1 |  |
| O=C1CCCC2=C1C(c1cccnc1Br)N=C(Nc1nc3ccccc3o1)N2 (stereo not drawn) [Compound 63] | 14.6 |  |
| O=C1CCCC2=C1C(c1n[nH]cc1Br)N=C(Nc1nc3ccccc3o1)N2 (stereo not drawn) [Compound 69] | 2.91 |  |
| Cn1cc(Br)c(C2N=C(Nc3nc4ccccc4o3)NC3=C2C(=O)CCC3)n1 (stereo not drawn) [Compound 70] | 2.91 |  |
| O=C1CCCC2=C1C(c1c(Cl)cccc1Cl)N=C(Nc1nc3ccccc3o1)N2 (stereo not drawn) [Compound 60] | 13 |  |
| O=C1CCCC2=C1C(c1ccncc1)N=C(Nc1nc3ccccc3o1)N2 (stereo not drawn) [Compound 50] | 42.1 |  |
| CC1=C(C(=O)Nc2ccon2)C(c2ccccc2Br)N=C(Nc2nc3ccccc3o2)N1 (stereo not drawn) [Compound 84] | 5.8 |  |
| O=C1CCCC2=C1C(c1ccncc1Br)N=C(Nc1nc3ccccc3o1)N2 (stereo not drawn) [Compound 71] | 20.6 |  |
